Assay results taken from a melting point compilation (Tetko et al.; mined from patent text by program, amines drawn as free bases though some values may be those of a salt).

`C[C@@H]1CN(c2ccc(C(F)(F)F)cn2)C[C@H](C)N1CC(=O)N1CC=C(c2ccc3ccccc3n2)CC1` gave a melting point of 94 to 95 °C.
`CCC(=CC(CSc1nnnn1-c1ccccc1)=NO)C(C)[N+](=O)[O-]` (stereo not drawn) gave a melting point of 66 to 69 °C.
In the case of `Cn1c(C(F)(F)F)cc(=O)n(-c2ccc3snc(CS(=O)(=O)CC(=O)O)c3c2)c1=O`, the melting point is reported as 215 °C.
Molecule `Cc1c(Br)c(Br)nn1C(C)C(=O)N(C)C(C)C` (stereo not drawn) has a melting point of 95 to 96.5 °C.
In the case of `CCc1ccc(NC2=CC3=NCN(C)C3=CC2(F)C(N)=O)c(F)c1` (stereo not drawn), the melting point is reported as 249 to 251 °C.
In the case of `CCCOc1ccccc1-c1nc2nc(CC)ncc2c(=O)[nH]1`, the melting point is reported as 118 to 119 °C.
Molecule `O=C(O)CCCCOC(c1ccccc1)(c1ccccc1)c1ccccc1` has a melting point of 146 to 148 °C.
In the case of `CCc1ccc(-c2ccccc2)cc1O`, the melting point is reported as 62 to 65 °C.
Work on `Cc1cccc(-c2[nH]c(C(C)C)nc2-c2cccc(-c3ccc4c(c3)CCCS4=O)c2)n1` (stereo not drawn) yielded a melting point of 136 to 139 °C.
With `NS(=O)(=O)C1CCCCC1=O` (stereo not drawn) the melting point was 118 to 119 °C.
In the case of `O=c1oc2c(c(O)c1C(C1CC1)C1CC1)CCCCCC2Cc1ccccc1` (stereo not drawn), the melting point is reported as 94 to 97 °C.
With `COc1cccc(-c2nc3c(C(N)=O)cccc3[nH]2)c1` the melting point was 93 to 94 °C.
In the case of `Cc1ccc(OC(CCCCCc2ccc(Cl)cc2)C(=O)O)cc1` (stereo not drawn), the melting point is reported as 74 to 76 °C.
With `COc1ccc2c(c1)C(NC(=O)C(F)(F)F)CC2` (stereo not drawn) the melting point was 128 to 136 °C.
For `COc1cc2c(c(Cl)c1Cl)SC(C(C)C)C2O` (stereo not drawn), the melting point was 119 to 123 °C.
Molecule `CN(C)c1nc2ccccc2n2cnnc12` has a melting point of 184 to 186 °C.
`CC(C)(C)c1cc(SCCSCCC(=O)O)cc(C(C)(C)C)c1O` gave a melting point of 57.5 °C.
`CN1CCC(=C2c3ccccc3-c3cocc3-c3ccccc32)CC1` gave a melting point of 147 to 148 °C.
Work on `O=NCNC1=Nc2ccccc2N(c2ccccc2)C(=O)C1` yielded a melting point of 139 to 140 °C.
For `COc1ccc(CCCCC(=O)O)cc1NC(=O)C[C@H]1O[C@H](c2cccc(OC)c2OC)c2cc(Cl)ccc2N(CC(C)(C)CO)C1=O`, the melting point was 136 to 138 °C.
With `CC(=O)c1cccnc1N(C)C1CCN(Cc2ccccc2)CC1` the melting point was 93 to 94 °C.
Work on `CNC(=Nc1cccc(CN(C)C)n1)NC#N` yielded a melting point of 180 to 181 °C.
For `CCc1cc(CC)c(-c2c(O)c(C)nn(C)c2=O)c(CC)c1Cl`, the melting point was 225 to 226 °C.
`Cc1ccc(-n2nc(Cl)cc2-c2ccc(S(C)(=O)=O)cc2)cc1F` gave a melting point of 160 to 162 °C.
For `COc1ccc(-c2c([N+](=O)[O-])cnc3ccc(Cl)cc23)c(OC)c1OC`, the melting point was 114 to 116 °C.
Molecule `O=C(/C=C/c1ccc(S(=O)(=O)N2CCN(c3ccc([N+](=O)[O-])cc3)CC2)cc1)NO` has a melting point of 199 to 200 °C.
`CCCC[C@H]1CC[C@H](C(=O)O)CC1` gave a melting point of 37 to 39 °C.
`COC(=O)c1ccc(/C=C/c2c(OC)cc3c(c2OC)C(C)(C)CCC3(C)C)cc1` gave a melting point of 140 to 142 °C.
Molecule `C=CCSc1nnc(OC)c2ccccc12` has a melting point of 32 to 34 °C.
For `COc1ccccc1C(=O)NN=C(CC(C)C)c1ccncc1`, the melting point was 130 °C.
In the case of `CCCCCCC(C)(C)c1cc(O)c(C2=C(CCO)CCC(C)C2)c(O)c1` (stereo not drawn), the melting point is reported as 83 to 86 °C.
For `Cc1cc(Cn2nc(-c3ccccc3)oc2=O)cc(C)c1O`, the melting point was 135 °C.
In the case of `CN1C(=O)C(NC(=O)NC(C)(C)C)N=C(c2ccccc2)c2ccccc21` (stereo not drawn), the melting point is reported as 281 to 282 °C.
Molecule `CCCN1N=C2C(=Cc3ccc(OC)cc3)CSCC2C1c1ccc(OC)cc1` (stereo not drawn) has a melting point of 150 to 152 °C.
For `Cn1cc(C(=O)Nc2cc(Cl)ccc2-c2cccc(Cl)c2)c(C(F)(Cl)Cl)n1`, the melting point was 145 to 146 °C.
`COc1ccc(-c2coc3cc(OCc4ccccc4)ccc3c2=O)cc1` showed a melting point of 181 to 183 °C.
Work on `CSCCCC(=O)C(=C1NCCCS1)[N+](=O)[O-]` yielded a melting point of 49 to 49.5 °C.
For `Clc1cc(-c2ccccn2)ccn1`, the melting point was 80 to 81 °C.
`CC(C)(C)OC(=O)NCC#Cc1cccnc1` showed a melting point of 74 to 78 °C.
Molecule `Cc1ccc(N(C)C)cc1C=O` has a melting point of 64 to 65 °C.
With `CC(CS)C(=O)N1c2ccccc2CCC1C(=O)O` (stereo not drawn) the melting point was 98 to 101 °C.
`CN1C(=O)[C@H](NC(=O)CNc2ccccc2)N=C(c2ccccc2)c2ccccc21` gave a melting point of 245 to 246 °C.
For `CC12CCC(=O)CC1CCC1C2CCC2(C)C(O)C(N=[N+]=[N-])CC12` (stereo not drawn), the melting point was 165 to 167 °C.
`CS(=O)(=O)c1ccc(-c2cnn(-c3ccc(F)c(F)c3)c(=O)c2OCCC2CCCC2)cc1` showed a melting point of 100 to 101 °C.
Work on `O=C(O)C1C=COc2cc(Cl)c(Cl)cc21` (stereo not drawn) yielded a melting point of 114 to 117 °C.
`O=C1NC(=Cc2ccc(Cl)cc2Cl)C(=O)C1=NO` showed a melting point of 180 °C.
Molecule `O=C(Nc1ccc(F)cc1)N1CCCCN1` has a melting point of 78.5 to 79.5 °C.
Work on `OC1CSC(Oc2cncc(-c3c(F)cc(F)cc3F)c2)C(O)C1O` (stereo not drawn) yielded a melting point of 228 °C.
`COc1nc(NC(=O)NS(=O)(=O)c2ccccc2OC(F)F)nc(C2CC2)n1` gave a melting point of 121 to 124 °C.
`COC(=O)C1=C(C)NC(C)=C(C(=O)OCCBr)C1c1cccc(Cl)c1Cl` (stereo not drawn) showed a melting point of 180 to 182 °C.
Molecule `CN(Cc1ccccc1)c1cc(=S)ss1` has a melting point of 138 to 140 °C.
In the case of `Cc1ccc2occ(-c3ccccc3)c2c1`, the melting point is reported as 99 to 108 °C.
Molecule `CCCCCCCCCCN1C(=O)C2CC(c3ccc(N)cc3)(C2)C1=O` has a melting point of 81.5 to 82.5 °C.
Work on `COc1cc2c(cc1S(C)(=O)=O)nc(C)n2C(C)C` yielded a melting point of 161 to 165 °C.
For `CC(C)(C)OC(=O)N1CCC(n2c(=O)n(CC(F)(F)F)c3cc(F)ccc32)CC1`, the melting point was 172 to 173 °C.
In the case of `CN(C)C(=NC(=Nc1ccccc1)N1CCOCC1)N(C)C`, the melting point is reported as 115 to 119 °C.
`O=C(O)C1CCc2c(c3cc(F)ccc3n2C(=O)c2ccccc2)C1` (stereo not drawn) showed a melting point of 218 to 220 °C.
Work on `COc1cc2c(cc1OC)C(C=NO)c1ccccc1CC2` (stereo not drawn) yielded a melting point of 176 to 177 °C.
In the case of `Cn1c2cc(Cl)ccc2c2c(C(=O)O)nc(-c3ccccc3)nc21`, the melting point is reported as 208 to 209 °C.
Work on `COc1ccc(-c2ccc3c(Br)c(OC)ccc3c2)cc1` yielded a melting point of 172 to 174 °C.
`C=CCOc1ccccc1/C=C\C(=O)O` gave a melting point of 80 to 82 °C.
In the case of `O[C@@H](CNC1CN(C(c2ccccc2)c2ccccc2)C1)COc1ccc(OCc2ccccc2)cc1`, the melting point is reported as 109 to 110 °C.
Work on `O=S1(=O)c2cccc3cccc(c23)N1CCCN1CC=C(c2ccc(O)cc2)CC1` yielded a melting point of 198 °C.
`C[C@@H](SN1CCOCC1)[C@](O)(Cn1cncn1)c1ccc(F)cc1F` showed a melting point of 119 to 121 °C.
In the case of `Nc1cccc2c1CC(O)CC2` (stereo not drawn), the melting point is reported as 88 to 91 °C.
`N#CCCS(=O)(=O)c1ccc(S(=O)(=O)Cl)cc1` gave a melting point of 124 to 125 °C.
Molecule `CCOC1Nc2c(O)cccc2C(=O)N2CCCC12` (stereo not drawn) has a melting point of 153 to 155 °C.
With `COc1cc(CCCC2OC(=O)NC2=O)ccc1OCc1nc(-c2ccccc2)oc1C` (stereo not drawn) the melting point was 161 to 162 °C.
`COc1ccc(CN2C(=O)C3(COc4cc5onc(C)c5cc43)c3ccccc32)cc1` (stereo not drawn) showed a melting point of 138 to 139 °C.
With `Cc1ccc(C(=C(C=CC=O)c2nnnn2C)c2ccc(C)cc2F)c(F)c1` the melting point was 88 to 108 °C.
With `CCCCCCCCC#CCC#CCC#CCO` the melting point was 48 °C.
Work on `CS(=O)(=O)N1CCN([C@@H](CNS(=O)(=O)c2ccc(OCc3ccccc3)cc2)C(=O)NO)CC1` yielded a melting point of 165 °C.
`Cc1cc(C)n(-c2nc(Nc3ccc(C(F)(F)F)cc3)c3ccccc3n2)n1` showed a melting point of 219 to 220 °C.
For `COCCOCCC1CCCCCc2c1oc(=O)c(C(c1ccccc1)C1CC1)c2O` (stereo not drawn), the melting point was 129 to 133 °C.
Molecule `COC1=CCC(OC)(OC)C=C1CCc1ccc(OC)cc1C` has a melting point of 71 to 72 °C.
`CCNC(=O)c1c(C2CC2)nc(CC)n1Cc1ccc2oc(-c3ccccc3NS(=O)(=O)C(F)(F)F)c(Br)c2c1` showed a melting point of 124 to 130 °C.
For `Cc1[nH]n(C2CCC2)c2nc(-c3ccncc3)nc(=O)c1-2`, the melting point was 289 to 290 °C.
With `O=C(O)c1ccc(-c2nc(-c3ccc(C(F)(F)F)cc3)cs2)cc1` the melting point was 164 to 165 °C.
With `CC(C)n1nc(-c2nc(-n3cccc3)c(N)nc2-c2ccccc2)ccc1=O` the melting point was 132 to 136 °C.
In the case of `COc1cc(C)c(C(=O)c2c(C)cccc2OC)c(OC)c1OC`, the melting point is reported as 84 °C.
For `CC1(c2ccccc2)OC(=O)Nc2ccc(-c3cccc(Cl)c3)cc21` (stereo not drawn), the melting point was 179 to 180 °C.
`CC(Oc1cccc(C=Cc2ccc3ccc(Cl)cc3n2)c1)C(N)=O` (single isomer, unassigned; (-)) showed a melting point of 195 to 197 °C.
`Cc1ccc(-c2c(NS(=O)(=O)c3ccc(C(C)(C)C)cc3)nc(NCCOC3CCCCO3)nc2OCCO)cc1` (stereo not drawn) showed a melting point of 113 to 116 °C.
With `COc1ccc2c(c1)c(=O)c(CSC)cn2C` the melting point was 122 to 123 °C.
For `CCN(CC)c1ccc(C2(c3c(C)n(CC)c4ccccc34)OC(=O)c3ccccc32)c(OC(C)C)c1` (stereo not drawn), the melting point was 193 °C.
Molecule `CS(=O)(=O)N1CCSc2ccccc2C1` has a melting point of 98 to 100 °C.
In the case of `O=C(Nc1ccccc1F)c1ccc(CN2C(=O)C3(COc4cc5c(cc43)OCCO5)c3ccccc32)cc1` (stereo not drawn), the melting point is reported as 245 to 251 °C.
`COC(=O)c1sccc1S(=O)(=O)NC(=O)Nc1nc(C)nc(C)n1` gave a melting point of 158 to 178 °C.
For `COc1ccc(C(=O)NCc2ccccc2)c2c1oc1ccc(NC(C)=O)cc12`, the melting point was 264 to 265 °C.
`CCCC1(C)C(=O)N(CC(=O)Nc2c(C(C)C)cccc2C(C)C)C(=O)N1c1ccc(C)cc1` (stereo not drawn) showed a melting point of 186 °C.
Molecule `O=C1CCC(N2C(=O)c3cccc(CNC(=O)Nc4ccc5ccccc5c4)c3C2=O)C(=O)N1` (stereo not drawn) has a melting point of 201 to 203 °C.
For `COc1cc(N)c(Cl)cc1C(=O)NCC1CNCCO1` (stereo not drawn), the melting point was 161 to 162 °C.
`COC(=O)COc1ccc(SCc2cc(-c3ccc(Cl)cc3)on2)cc1C` showed a melting point of 79 to 80 °C.
For `CSc1ccc(N2CC=C(c3cccc(C)c3)CC2)nn1`, the melting point was 130 °C.
With `Cn1nnnc1SCCCC(=O)c1ccc2ccccc2c1` the melting point was 118 to 120 °C.
For `O=C(O)CCCc1ccc(NS(=O)(=O)c2cccc(C(F)(F)F)c2)cn1`, the melting point was 157 to 159 °C.
Molecule `CC1CCc2c(N3CCC(Cc4ccccc4)CC3)c(F)cc3c(=O)c(C(=O)O)cn1c23` (stereo not drawn) has a melting point of 230 to 232 °C.
Molecule `COc1cc(C(=O)OCCCCBr)ccc1O` has a melting point of 83 to 88 °C.
Work on `COc1cc(-c2nc(C)cs2)cc(OC)c1OC` yielded a melting point of 105 to 106 °C.
`O=C(O)CC1c2ccccc2COc2ccccc21` (stereo not drawn) gave a melting point of 114 to 115 °C.
With `CC(CO)Nc1ccc(-c2cccc(C(F)(F)F)c2)nn1` (stereo not drawn) the melting point was 143 to 144 °C.
Work on `CCNS(=O)(=O)/C=C/c1ccc2[nH]cc(C3CCN(Cc4ccccc4)CC3)c2c1` yielded a melting point of 178 to 180 °C.
With `CC(C)c1ccc(-c2nsc(-c3cccc(C(=O)O)c3)n2)cc1` the melting point was 166 to 168 °C.
